Columns and labels:
anti-STh mAb ST:G8 = test: Competitive ELISA with anti-STh antibodies (polyclonal, mAb ST:G8); format: binding; details: polyclonal and monoclonal (ST:G8) anti-STh antibodies
Experimental: Competitive STh ELISA was performed as previously described (PMID: 6520401; Lockwood and Robertson, J Immunol Methods. 1984 Dec. 31; 75(2):295-307) with minor modifications. A U-shaped microtiter plate (Linbro, Fisher Scientific, Göteborg, Sweden) was coated with STh-ovalbumin conjugate diluted in ELISA buffer (NaCl 128 mM, KCl 2.68 mM, KH2PO4 1.47 mM, Na2HPO4 8.10 mM; pH 7.0-7.2). The plate was covered with plate sealer and incubated overnight at 37° C. Contents of the wells were discarded by inversion. Additional protein binding sites were blocked by incubating with ovalbumin 1% (w/v) (Sigma-Aldrich) diluted in ELISA buffer. After incubation for 1 h at 37° C., wells were emptied and washed three times with wash buffer (ELISA buffer containing ovalbumin 0.05% (w/v) and Tween-20 0.05% (v/v)). 75 μL of samples containing STh and 75 μL of diluted antisera (Protein-A purified rabbit anti-STa kindly supplied by John D. Clements; Department of Microbiology and Immunology, Tulane University, New Orleans, USA) were added. Both dilutions were done in ELISA buffer containing ovalbumin 0.05% (w/v). Appropriate dilutions and concentrations of reagents were determined by checkerboard titrations. The plate was incubated for 2 h at 37° C., in a rotary incubator shaker (Infors HT, Bottmingen/Basel Switzerland) at 180 rpm. Wells were emptied and washed three times with wash buffer. 100 μL of anti-Rabbit IgG Alkaline Phosphatase Conjugate developed in goat (Sigma-Aldrich) diluted 1:400 in ELISA buffer with ovalbumin 0.05% (w/v) were add and incubated with not shaking for 1 h at 37° C. Wells were emptied and washed three times with wash buffer followed by addition of 100 μL of 4-Nitrophenyl phosphate disodium salt hexahydrate at 1 mg/mL in diethanolamine buffer (diethanolamine 9.7% (v/v), MgCl2×6H2O 0.49 mM; pH 9.8). After incubation for 30 min, the reaction was stopped with 50 μL 2N NaOH (VWR international) in each well. The absorbance was read in an automatic plate reader at 405 nm (FLUOstar OPTIMA; BMG Labtech, Germany). All samples were measured in triplicate.
(§1) The anti-STh mAb ST:G8 was kindly supplied by S. Visweswariah [Garrett & Visweswariah; PMID: 8950201]. The anti-STp mAbs clone 29, clone 30, and clone 31 were obtained from Fitzgerald Industries International.
ELISA-plates (Nunc Amino Immobilizer) were coated with STh-OvA conjugate in PBS, volume 100 μl per well (synthetic STh conjugated to OvA: For ST:G8 0.04 μl/well, for clone 29 and clone 30 0.01 μl/well). Plates were incubated overnight at 4 C. Subsequently, plates were emptied and blocked with PBS-T 1% OvA for 1h at 20° C. with shaking 180 rpm. […] Developing was stopped by adding 50 μl NaOH 2M to each well, and OD was read at 405 nm with a Fluostar Optima plate reader.

anti-STp mAb clone 30 = test: Competitive ELISA with anti-STp antibodies (polyclonal, mAbs clone 29, 30, 31); format: binding; details: anti-STp mAb Clone 30, competitive ELISA
Experimental: as §1
ELISA-plates (Nunc Amino Immobilizer) were coated with STh-OvA conjugate in PBS, volume 100 μl per well (synthetic STh conjugated to OvA: For ST:G8 0.04 μl/well, for clone 29 and clone 30 0.01 μl/well). Plates were incubated overnight at 4 C. Subsequently, plates were emptied and blocked with PBS-T 1% OvA for 1h at 20° C. with shaking 180 rpm. After washing (3× with PBS-T) a volume of 60 μl of sample and 60 μl of primary antibody dilution was added to wells. Final dilutions of mAbs were as follows: ST:G8 1:6500, clone 29 1:16000, clone 30 1: 30000. Competitive incubation was performed for 90 minutes at 180 rpm, 20 C. Plates were then washed with 3×200 μl PBS-T and incubated at room-temperature for 1h with secondary antibody diluted in PBS-T 100 μl per well (anti-mouse dilution 1:400 for the ST:G8 ELISA, anti-mouse dilution 1:2000 for clone 29 and clone 30 ELISA). After renewed washing with 3×200 μl PBS-T, plates were developed with 100 μl developing buffer for 15-20 minutes. Developing was stopped by adding 50 μl NaOH 2M to each well, and OD was read at 405 nm with a Fluostar Optima plate reader.
For the clone 31 mAb a slightly different protocol was developed. […]

Row | Substance | binding by anti-STh antibodies (anti-STh mAb ST:G8) | binding by anti-STp antibodies (anti-STp mAb clone 30)
1 | NSSNYCCELCCNPACTGCY [STh] | bound | 
2 | NTFYCCELCCNPACAGCY [STp] | bound | 
3 | guanylin (PGTCEICAYAACTGC) [endogenous peptide ligand of the GC-C receptor] | not | 
4 | uroguanylin (NDDCELCVNVACTGCL) [endogenous peptide ligand of the GC-C receptor] | bound | does not cross-react

— patent US10166279B2, “Vaccine” (Bergen Teknologioverføring AS, priority 2013, dated 2019)
